Source: ChEMBL document CHEMBL5131516, “The Ascension of Targeted Covalent Inhibitors” (J Med Chem, 2022)

Experiments:
[1] = Inhibition of wild-type EGFR phosphorylation in human NCI-H1819 cells; assay type: cell-based
[2] = target: T1, Tyrosine-protein kinase Tec (Homo sapiens, UniProt P42680)
T1 sequence (P42680 whole entry): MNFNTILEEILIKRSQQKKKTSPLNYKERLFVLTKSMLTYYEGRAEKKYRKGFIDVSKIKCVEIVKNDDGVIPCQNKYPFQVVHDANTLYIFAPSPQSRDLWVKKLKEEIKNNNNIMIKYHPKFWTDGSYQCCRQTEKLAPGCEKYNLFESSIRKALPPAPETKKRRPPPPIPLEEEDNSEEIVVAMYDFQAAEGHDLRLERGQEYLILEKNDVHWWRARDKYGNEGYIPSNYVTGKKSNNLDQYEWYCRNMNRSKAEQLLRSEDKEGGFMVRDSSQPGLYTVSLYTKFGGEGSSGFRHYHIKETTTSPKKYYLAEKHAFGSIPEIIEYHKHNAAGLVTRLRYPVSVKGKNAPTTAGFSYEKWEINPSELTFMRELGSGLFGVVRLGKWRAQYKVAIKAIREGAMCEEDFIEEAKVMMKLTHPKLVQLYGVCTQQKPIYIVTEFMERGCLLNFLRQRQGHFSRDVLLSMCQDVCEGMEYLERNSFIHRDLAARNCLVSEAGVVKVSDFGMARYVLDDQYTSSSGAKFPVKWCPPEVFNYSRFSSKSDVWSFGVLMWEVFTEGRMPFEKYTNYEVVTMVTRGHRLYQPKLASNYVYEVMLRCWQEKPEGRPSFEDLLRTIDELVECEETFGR
Description: Inhibition of TEC (unknown origin)

| EC50 [1] [nM] | IC50 [2] [nM] | Structure (SMILES) |
| --- | --- | --- |
| 29 | – | COc1cc2ncnc(Nc3ccc(F)c(Cl)c3)c2cc1NC(=O)/C=C/CN1CCCCC1 [DACOMITINIB ANHYDROUS] |
| – | 44 | C=CC(=O)N1CCC([C@@H]2CCNc3c(C(N)=O)c(-c4ccc(Oc5ccccc5)cc4)nn32)CC1 [ZANUBRUTINIB] |
